In patent US7858635B2 (priority 2005, dated 2010):
Where two headings read alike, the source gives them in different places.

What was measured:
M1 muscarinic receptor = molecular target: T1, M1 muscarinic receptor (Homo sapiens, UniProt P11229); assay: Functional mobilization of intracellular calcium (FLIPR, Fluo-3), M1-CHO cells; assay type: cell-based; details: for Emax: read-out: M1 Efficacy
T1 construct: expressed in transfected cells; host or cells: CHO cells (M1-CHO, under zeocin and G418 selection)
T1 sequence (P11229 1-460): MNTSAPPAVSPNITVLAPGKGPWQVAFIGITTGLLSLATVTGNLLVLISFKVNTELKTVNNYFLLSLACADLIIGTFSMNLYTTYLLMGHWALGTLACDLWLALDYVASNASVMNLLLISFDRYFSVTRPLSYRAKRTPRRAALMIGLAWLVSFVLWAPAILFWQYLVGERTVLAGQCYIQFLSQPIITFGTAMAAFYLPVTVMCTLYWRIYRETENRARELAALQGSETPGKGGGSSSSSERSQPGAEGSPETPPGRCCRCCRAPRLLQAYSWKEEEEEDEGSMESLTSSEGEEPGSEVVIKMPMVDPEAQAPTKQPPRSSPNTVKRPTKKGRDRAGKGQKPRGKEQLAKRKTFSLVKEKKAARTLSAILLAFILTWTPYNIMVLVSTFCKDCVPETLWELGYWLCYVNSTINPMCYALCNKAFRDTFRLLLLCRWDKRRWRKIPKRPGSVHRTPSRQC
Outline: (§1)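 Fluo-3 read-out, ex 488/em 540 nm, 60 sec on FLIPR 3. For agonist mode, compound added directly; for inhibition, 15 min compound pre-incubation before carbachol at EC80 (added as a 3× solution), or co-application. Buffer pH 7.4 with 1 mM probenecid; DMSO 0.5%.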

M4 muscarinic receptor = molecular target: T2, M4 muscarinic receptor (Homo sapiens, UniProt P08173); assay: Functional mobilization of intracellular calcium (FLIPR, Fluo-3), M4-CHO cells; assay type: cell-based; details: for Emax: read-out: M4 Efficacy
T2 construct: expressed in transfected cells; host or cells: CHO cells (M4-CHO, under puromycin, zeocin and blasticidin selection)
T2 sequence (P08173 1-479): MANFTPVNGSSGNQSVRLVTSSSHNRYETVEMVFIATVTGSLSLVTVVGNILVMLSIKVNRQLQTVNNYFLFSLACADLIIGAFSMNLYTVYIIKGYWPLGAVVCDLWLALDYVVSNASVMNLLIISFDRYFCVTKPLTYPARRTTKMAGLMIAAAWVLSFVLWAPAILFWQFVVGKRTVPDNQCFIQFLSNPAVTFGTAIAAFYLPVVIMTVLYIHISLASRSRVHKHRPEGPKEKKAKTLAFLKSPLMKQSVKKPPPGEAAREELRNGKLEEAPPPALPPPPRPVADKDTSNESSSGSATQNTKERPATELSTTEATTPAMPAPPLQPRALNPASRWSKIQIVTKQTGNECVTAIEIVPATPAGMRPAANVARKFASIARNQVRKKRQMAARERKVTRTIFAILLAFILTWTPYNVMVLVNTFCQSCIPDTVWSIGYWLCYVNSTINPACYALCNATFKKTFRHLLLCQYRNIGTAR
Outline: as §1

[1] = compound nos. 1-454, 100% efficacy is the maximum response obtained with the Carbachol control
[2] = compound nos. 1-454, M1-CHO cells, calcium mobilization
[3] = compound nos. 1-454, M4-CHO cells, calcium mobilization
[4] = compound nos. 455-509, 100% efficacy is the maximum response obtained with the Carbachol control

Structure (SMILES)	Emax (M1 muscarinic receptor; [1]) [%]	M1 Activity (M1 muscarinic receptor; [2])	Emax (M4 muscarinic receptor; [1]) [%]	M4 Activity (M4 muscarinic receptor; [3])	further results
CCOC(=O)N1CCC(N2CCC3(CC2)CN(C(C)=O)c2ccc(-c4ccccc4)cc23)CC1 [compound 126]	< 65	+++ (activity was measured to be less than or equal to 0.7 μM)	< 55	+ (activity was measured to be greater than or equal to 4.0 μM)	
Cc1ccc2c(c1)C1(CCN(C3CC4CCC3C4)CC1)CN2S(=O)(=O)c1ccccc1 (stereo not drawn) [compound 354]	65 to 85	+ (activity was measured to be greater than or equal to 3.0 μM)	55 to 70	+ (activity was measured to be greater than or equal to 4.0 μM)	
CCOC(=O)N1CCC(N2CCC3(CC2)CN(C(=O)N2CCCC2)c2ccc(F)cc23)CC1 [compound 22]	65 to 85	+++ (activity was measured to be less than or equal to 0.7 μM)	< 55	+ (activity was measured to be greater than or equal to 4.0 μM)	
Clc1ccc2c(c1)C1(CCN(C3CCCCC3)CC1)CN2 [compound 155]	> 85	+++ (activity was measured to be less than or equal to 0.7 μM)	> 70	+ (activity was measured to be greater than or equal to 4.0 μM)	
CCOC(=O)N1C2CCC1CC(N1CCC3(CC1)CN(C(=O)OC)c1ccc(F)cc13)C2 (stereo not drawn) [compound 167]	65 to 85	+++ (activity was measured to be less than or equal to 0.7 μM)	> 70	++ (activity was measured to be between 0.1 μM and 4.0 μM)	
CC#CCOC(=O)N1CC2(CCN(C3CCN(C(=O)OCC)CC3)CC2)c2cc(F)ccc21 [compound 346]	< 65	+++ (activity was measured to be less than or equal to 0.7 μM)	< 55	+ (activity was measured to be greater than or equal to 4.0 μM)	
Cc1ccc2c(c1)C1(CCN(C3CC4CCC3C4)CC1)CN2C(=O)C1CC1 (stereo not drawn) [compound 51]	65 to 85	+++ (activity was measured to be less than or equal to 0.7 μM)	55 to 70	++ (activity was measured to be between 0.1 μM and 4.0 μM)	
Cc1ccc2c(c1)C1(CCN(CC3CCC4CCC3C4)CC1)CN2 (stereo not drawn) [compound 241]	< 65	++ (activity was measured to be between 0.7 μM and 3.0 μM)	> 70	+ (activity was measured to be greater than or equal to 4.0 μM)	
CCCOC(=O)N1CCC(N2CCC3(CC2)CN(C(=O)N(C)C)c2ccc(F)cc23)CC1 [compound 91]	65 to 85	+++ (activity was measured to be less than or equal to 0.7 μM)	< 55	++ (activity was measured to be between 0.1 μM and 4.0 μM)	
COCCOC(=O)N1CC2(CCN(C3CC4CCC(C3)N4C(=O)OCCOC)CC2)c2cc(F)ccc21 (stereo not drawn) [compound 117]	65 to 85	+++ (activity was measured to be less than or equal to 0.7 μM)	< 55	++ (activity was measured to be between 0.1 μM and 4.0 μM)	
CC(C)OC(=O)N1CCC(N2CCC3(CC2)CN(C(=O)N(C)C)c2ccc(F)cc23)CC1 [compound 54]	> 85	+++ (activity was measured to be less than or equal to 0.7 μM)	55 to 70	++ (activity was measured to be between 0.1 μM and 4.0 μM)	
COCCOC(=O)N1CCC(CN2CCC3(CC2)CN(C(C)=O)c2ccc(F)cc23)CC1 [compound 26]	65 to 85	+++ (activity was measured to be less than or equal to 0.7 μM)	< 55	++ (activity was measured to be between 0.1 μM and 4.0 μM)	
CCOC(=O)N1C2CCC1CC(N1CCC3(CC1)CN(C(=O)Nc1ccc(F)cc1)c1ccc(F)cc13)C2 (stereo not drawn) [compound 197]	< 65	++ (activity was measured to be between 0.7 μM and 3.0 μM)	< 55	+ (activity was measured to be greater than or equal to 4.0 μM)	
CC(=O)N1CCC2(CCN(C3CCN(c4cnccn4)CC3)CC2)c2ccccc21 [compound 463]					Emax (M1 muscarinic receptor; [4]): > 100%; M1 Activity (M1 muscarinic receptor; compounds 455-509): +++ (activity was measured to be less than or equal to 2.0 μM); Emax (M4 muscarinic receptor; [4]): 25 to 100%; M4 Activity (M4 muscarinic receptor; compounds 455-509): ++ (activity was measured to be between 2.0 μM and 5.0 μM)
CCOC(=O)N1CCC(N2CCC3(CC2)CN(C(=O)c2ccc(C)cc2)c2ccc(F)cc23)CC1 [compound 330]	< 65	+ (activity was measured to be greater than or equal to 3.0 μM)	< 55	+ (activity was measured to be greater than or equal to 4.0 μM)	
Cc1ccc(N2CCC(N3CCC4(CC3)CN(C(=O)N(C)C)c3ccc(F)cc34)CC2)nn1 [compound 462]					Emax (M1 muscarinic receptor; [4]): 25 to 100%; M1 Activity (M1 muscarinic receptor; compounds 455-509): + (activity was measured to be greater than or equal to 5.0 μM); Emax (M4 muscarinic receptor; [4]): < 25%; M4 Activity (M4 muscarinic receptor; compounds 455-509): ++ (activity was measured to be between 2.0 μM and 5.0 μM)
CC(=O)N1CCC2(CCN(C3CCN(c4nc(C)ns4)CC3)CC2)c2ccccc21 [compound 492]					Emax (M1 muscarinic receptor; [4]): > 100%; M1 Activity (M1 muscarinic receptor; compounds 455-509): +++ (activity was measured to be less than or equal to 2.0 μM); Emax (M4 muscarinic receptor; [4]): 25 to 100%; M4 Activity (M4 muscarinic receptor; compounds 455-509): ++ (activity was measured to be between 2.0 μM and 5.0 μM)
Clc1ccc2c(c1)C1(CCO2)CCN(CC2CC3C=C[C@H]2C3)CC1 (stereo in doubt) [compound 64, 1′-((1R,2R,4R)-bicyclo[2.2.1]hept-5-en-2-ylmethyl)-6-chlorospiro[chroman-4,4′-piperidine]]	< 65	+++ (activity was measured to be less than or equal to 0.7 μM)	< 55	++ (activity was measured to be between 0.1 μM and 4.0 μM)	
Fc1ccc2c(c1)C1(CCN([C@H]3C[C@@H]4CC[C@@H]3C4)CC1)CO2 [compound 204]	65 to 85	+++ (activity was measured to be less than or equal to 0.7 μM)	< 55	+ (activity was measured to be greater than or equal to 4.0 μM)	
CCOC(=O)N1CCC(N2CCC3(CC2)C[C@H](NC(C)=O)c2ccccc23)CC1 [compound 430]	< 65		< 55		M1 Activity (M1 muscarinic receptor; compound nos. 1-454): ++ (activity was measured to be between 0.7 μM and 3.0 μM); M4 Activity (M4 muscarinic receptor; compound nos. 1-454): + (activity was measured to be greater than or equal to 4.0 μM)
CCOC(=O)N1CCC(N2CCC3(CC2)CN(C(C)=O)c2ccc(C)cc23)CC1 [compound 92]	65 to 85	+++ (activity was measured to be less than or equal to 0.7 μM)	< 55	++ (activity was measured to be between 0.1 μM and 4.0 μM)	
C1=C[C@H]2C[C@H]1C[C@@H]2CN1CCC2(CCc3ccccc32)CC1 [compound 263]	< 65	+++ (activity was measured to be less than or equal to 0.7 μM)	< 55	+++ (activity was measured to be less than or equal to 0.1 μM)	
CN(C)C(=O)N1CC2(CCN(C3CCN(C(=O)O[C@H]4CCOC4)CC3)CC2)c2cc(F)ccc21 [compound 120]	< 65	++ (activity was measured to be between 0.7 μM and 3.0 μM)	< 55	+ (activity was measured to be greater than or equal to 4.0 μM)	
CCOC(=O)N1CCC(N2CCC3(CC2)C[C@H](NC(C)=O)c2ccccc23)CC1 [compound 61]		+++ (activity was measured to be less than or equal to 0.7 μM)		++ (activity was measured to be between 0.1 μM and 4.0 μM)	M1 Efficacy (M1 muscarinic receptor; [1]): ++ (efficacy was calculated to be between 85% and 65%); M4 Efficacy (M4 muscarinic receptor; [1]): ++ (efficacy was calculated to be between 70% and 55%)
